# Reference: PubChem BioAssay (NCI)
#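 A five-concentration, 48-hour dose response in 96-well plates underlies each endpoint, interpolated linearly between surrounding concentrations. TGI denotes the concentration required for complete inhibition of growth.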
# Columns and labels:
# Assay in all cases: NCI-60 cell line screen, 48 h
# DMS 114 small cell lung = tested on: DMS 114 small cell lung
# M19-MEL melanoma = tested on: M19-MEL melanoma
# SNB-78 CNS = tested on: SNB-78 CNS
# LXFL 529 NSCLC = tested on: LXFL 529 NSCLC
# LOX IMVI melanoma = tested on: LOX IMVI melanoma
# 786-0 renal = tested on: 786-0 renal
# HOP-18 NSCLC = tested on: HOP-18 NSCLC
# XF 498 CNS = tested on: XF 498 CNS
# KM20L2 colon = tested on: KM20L2 colon
# DMS 273 small cell lung = tested on: DMS 273 small cell lung
# DLD-1 colon = tested on: DLD-1 colon
# HOP-62 NSCLC = tested on: HOP-62 NSCLC
# RXF-631 renal = tested on: RXF-631 renal
smiles,measurement,setting,value
CC(C)(C)C1CCC2c3c([nH]c4ncccc34)C3C(=O)N(c4ccccc4)C(=O)C3C2C1 (stereo not drawn),TGI,DMS 114 small cell lung,> 100 µM
same,TGI,M19-MEL melanoma,> 100 µM
same,TGI,SNB-78 CNS,> 100 µM
same,TGI,LXFL 529 NSCLC,> 100 µM
same,TGI,LOX IMVI melanoma,> 100 µM
same,TGI,786-0 renal,> 100 µM
same,TGI,HOP-18 NSCLC,> 100 µM
same,TGI,XF 498 CNS,> 100 µM
same,TGI,KM20L2 colon,> 100 µM
same,TGI,DMS 273 small cell lung,> 100 µM
same,TGI,DLD-1 colon,> 100 µM
same,TGI,HOP-62 NSCLC,> 100 µM
O=C(O)[C@@H]1OCCOCCO[C@@H](C(=O)O)[C@H](C(=O)O)OCCOCCO[C@H]1C(=O)O,TGI,DMS 114 small cell lung,> 92.3 µM
same,TGI,M19-MEL melanoma,> 100 µM
same,TGI,SNB-78 CNS,> 100 µM
same,TGI,LXFL 529 NSCLC,> 100 µM
same,TGI,LOX IMVI melanoma,> 100 µM
same,TGI,786-0 renal,> 100 µM
same,TGI,HOP-18 NSCLC,> 100 µM
same,TGI,XF 498 CNS,> 100 µM
same,TGI,KM20L2 colon,> 100 µM
same,TGI,DMS 273 small cell lung,> 100 µM
same,TGI,DLD-1 colon,> 61.8 µM
same,TGI,HOP-62 NSCLC,> 100 µM
C/C(=N\NC(=O)C[N+](C)(C)C)c1sc(-c2cccnc2)nc1C,TGI,DMS 114 small cell lung,> 100 µM
same,TGI,M19-MEL melanoma,> 100 µM
same,TGI,SNB-78 CNS,> 100 µM
same,TGI,LXFL 529 NSCLC,> 100 µM
same,TGI,LOX IMVI melanoma,> 100 µM
same,TGI,RXF-631 renal,> 100 µM
same,TGI,786-0 renal,> 100 µM
same,TGI,XF 498 CNS,> 100 µM
same,TGI,KM20L2 colon,> 100 µM
same,TGI,DMS 273 small cell lung,> 100 µM
same,TGI,DLD-1 colon,> 100 µM
same,TGI,HOP-62 NSCLC,> 100 µM
O=C1N2Cc3c4ccc5c3CN3C(=O)N6Cc7c(ccc(c7CN1C6(c1ccccc1)C23c1ccccc1)OCCOCCOc1cc(Br)c(Br)cc1OCCOCCO4)OCCOCCOc1cc(Br)c(Br)cc1OCCOCCO5 (stereo not drawn),TGI,DMS 114 small cell lung,> 100 µM
same,TGI,M19-MEL melanoma,> 100 µM
same,TGI,SNB-78 CNS,> 100 µM
same,TGI,LXFL 529 NSCLC,> 100 µM
same,TGI,RXF-631 renal,> 100 µM
same,TGI,786-0 renal,> 100 µM
same,TGI,HOP-18 NSCLC,> 100 µM
same,TGI,KM20L2 colon,> 100 µM
same,TGI,DMS 273 small cell lung,> 100 µM
same,TGI,DLD-1 colon,42.1 µM
same,TGI,HOP-62 NSCLC,> 100 µM
CCO/S(=N/S(=O)(=O)c1ccccc1)c1ccccc1[N+](=O)[O-] (stereo not drawn),TGI,DMS 114 small cell lung,> 100 µM
same,TGI,M19-MEL melanoma,> 100 µM
same,TGI,LXFL 529 NSCLC,> 100 µM
same,TGI,LOX IMVI melanoma,> 100 µM
same,TGI,786-0 renal,> 100 µM
same,TGI,HOP-18 NSCLC,> 100 µM
same,TGI,XF 498 CNS,> 100 µM
same,TGI,KM20L2 colon,> 100 µM
same,TGI,DMS 273 small cell lung,> 100 µM
same,TGI,DLD-1 colon,> 100 µM
same,TGI,HOP-62 NSCLC,> 100 µM
N#COc1ccc(Oc2ccccc2)cc1,TGI,DMS 114 small cell lung,89.6 µM
same,TGI,M19-MEL melanoma,> 100 µM
same,TGI,SNB-78 CNS,> 100 µM
same,TGI,LXFL 529 NSCLC,> 100 µM
same,TGI,LOX IMVI melanoma,40.9 µM
same,TGI,786-0 renal,> 100 µM
same,TGI,HOP-18 NSCLC,> 100 µM
same,TGI,XF 498 CNS,> 100 µM
same,TGI,KM20L2 colon,> 100 µM
same,TGI,DMS 273 small cell lung,50.4 µM
same,TGI,DLD-1 colon,> 100 µM
same,TGI,HOP-62 NSCLC,> 100 µM
O=c1[nH]c2cc([N+](=O)[O-])ccc2nc1/C(=N/Nc1ccccc1)C(O)c1ccco1 (stereo not drawn),TGI,DMS 114 small cell lung,> 100 µM
same,TGI,M19-MEL melanoma,> 100 µM
same,TGI,LXFL 529 NSCLC,> 100 µM
same,TGI,LOX IMVI melanoma,> 100 µM
same,TGI,RXF-631 renal,> 100 µM
same,TGI,786-0 renal,> 100 µM
same,TGI,XF 498 CNS,> 100 µM
same,TGI,KM20L2 colon,> 100 µM
same,TGI,DMS 273 small cell lung,> 100 µM
same,TGI,DLD-1 colon,> 100 µM
same,TGI,HOP-62 NSCLC,> 100 µM
COc1cc2c(oc(=O)c3c4occc4cc(OC)c23)c2cccc(OCc3ccccc3)c12,TGI,DMS 114 small cell lung,> 100 µM
same,TGI,M19-MEL melanoma,> 100 µM
same,TGI,SNB-78 CNS,> 100 µM
same,TGI,LXFL 529 NSCLC,> 100 µM
same,TGI,LOX IMVI melanoma,> 100 µM
same,TGI,786-0 renal,> 100 µM
same,TGI,HOP-18 NSCLC,> 100 µM
same,TGI,XF 498 CNS,> 100 µM
same,TGI,KM20L2 colon,> 100 µM
same,TGI,DMS 273 small cell lung,> 100 µM
same,TGI,DLD-1 colon,> 100 µM
same,TGI,HOP-62 NSCLC,> 100 µM
